# Calls of active or inactive are those of the source. The rule behind the calls is not given here.
# System: CCRIS mutagenicity, Ames/micronucleus/aberration tests
# Assay: CCRIS mutagenicity studies
# [1] = Test System: AMES SALMONELLA TYPHIMURIUM, Strain/Indicator: TA100, Metabolic Activation: NONE, Method: STANDARD PLATE
# [2] = Test System: AMES SALMONELLA TYPHIMURIUM, Strain/Indicator: TA100, Metabolic Activation: RAT, LIVER, S-9, AROCLOR 1254, Method: STANDARD PLATE
# [3] = Test System: AMES SALMONELLA TYPHIMURIUM, Strain/Indicator: TA98, Metabolic Activation: NONE, Method: STANDARD PLATE
# [4] = Test System: AMES SALMONELLA TYPHIMURIUM, Strain/Indicator: TA98, Metabolic Activation: RAT, LIVER, S-9, AROCLOR 1254, Method: STANDARD PLATE
smiles,measurement,setting,value
COC=O,mutagenic call,"Test System: AMES SALMONELLA TYPHIMURIUM, Strain/Indicator: TA97, Metabolic Activation: HAMSTER, LIVER, S-9, AROCLOR 1254 (10 OR 30%), Method: PREINCUBATION",inactive; negative
same,mutagenic call,"Test System: AMES SALMONELLA TYPHIMURIUM, Strain/Indicator: TA97, Metabolic Activation: NONE, Method: PREINCUBATION",inactive; negative
same,mutagenic call,"Test System: AMES SALMONELLA TYPHIMURIUM, Strain/Indicator: TA97, Metabolic Activation: RAT, LIVER, S-9, AROCLOR 1254 (10 OR 30%), Method: PREINCUBATION",inactive; negative
same,mutagenic call,"Test System: AMES SALMONELLA TYPHIMURIUM, Strain/Indicator: TA98, Metabolic Activation: HAMSTER, LIVER, S-9, AROCLOR 1254 (10 OR 30%), Method: PREINCUBATION",inactive; negative
same,mutagenic call,"Test System: AMES SALMONELLA TYPHIMURIUM, Strain/Indicator: TA98, Metabolic Activation: NONE, Method: GAS EXPOSURE",inactive; negative
same,mutagenic call,"Test System: AMES SALMONELLA TYPHIMURIUM, Strain/Indicator: TA98, Metabolic Activation: NONE, Method: PREINCUBATION",inactive; negative
same,mutagenic call,"Test System: AMES SALMONELLA TYPHIMURIUM, Strain/Indicator: TA98, Metabolic Activation: RAT, LIVER, S-9, AROCLOR 1254 (10 OR 30%), Method: PREINCUBATION",inactive; negative
same,mutagenic call,"Test System: AMES SALMONELLA TYPHIMURIUM, Strain/Indicator: TA98, Metabolic Activation: RAT, LIVER, S-9, SODIUM PHENOBARBITAL AND 5,6-BENZOFLAVONE, Method: GAS EXPOSURE",inactive; negative
same,mutagenic call,"Test System: AMES SALMONELLA TYPHIMURIUM, Strain/Indicator: TA100, Metabolic Activation: HAMSTER, LIVER, S-9, AROCLOR 1254 (10 OR 30%), Method: PREINCUBATION",inactive; negative
same,mutagenic call,"Test System: AMES SALMONELLA TYPHIMURIUM, Strain/Indicator: TA100, Metabolic Activation: NONE, Method: GAS EXPOSURE",inactive; negative
same,mutagenic call,"Test System: AMES SALMONELLA TYPHIMURIUM, Strain/Indicator: TA100, Metabolic Activation: NONE, Method: PREINCUBATION",inactive; negative
same,mutagenic call,"Test System: AMES SALMONELLA TYPHIMURIUM, Strain/Indicator: TA100, Metabolic Activation: RAT, LIVER, S-9, AROCLOR 1254 (10 OR 30%), Method: PREINCUBATION",inactive; negative
same,mutagenic call,"Test System: AMES SALMONELLA TYPHIMURIUM, Strain/Indicator: TA100, Metabolic Activation: RAT, LIVER, S-9, SODIUM PHENOBARBITAL AND 5,6-BENZOFLAVONE, Method: GAS EXPOSURE",inactive; negative
same,mutagenic call,"Test System: AMES SALMONELLA TYPHIMURIUM, Strain/Indicator: TA1535, Metabolic Activation: HAMSTER, LIVER, S-9, AROCLOR 1254 (10 OR 30%), Method: PREINCUBATION",inactive; negative
same,mutagenic call,"Test System: AMES SALMONELLA TYPHIMURIUM, Strain/Indicator: TA1535, Metabolic Activation: NONE, Method: GAS EXPOSURE",inactive; negative
same,mutagenic call,"Test System: AMES SALMONELLA TYPHIMURIUM, Strain/Indicator: TA1535, Metabolic Activation: NONE, Method: PREINCUBATION",inactive; negative
same,mutagenic call,"Test System: AMES SALMONELLA TYPHIMURIUM, Strain/Indicator: TA1535, Metabolic Activation: RAT, LIVER, S-9, AROCLOR 1254 (10 OR 30%), Method: PREINCUBATION",inactive; negative
same,mutagenic call,"Test System: AMES SALMONELLA TYPHIMURIUM, Strain/Indicator: TA1535, Metabolic Activation: RAT, LIVER, S-9, SODIUM PHENOBARBITAL AND 5,6-BENZOFLAVONE, Method: GAS EXPOSURE",inactive; negative
same,mutagenic call,"Test System: AMES SALMONELLA TYPHIMURIUM, Strain/Indicator: TA1537, Metabolic Activation: NONE, Method: GAS EXPOSURE",inactive; negative
same,mutagenic call,"Test System: AMES SALMONELLA TYPHIMURIUM, Strain/Indicator: TA1537, Metabolic Activation: RAT, LIVER, S-9, SODIUM PHENOBARBITAL AND 5,6-BENZOFLAVONE, Method: GAS EXPOSURE",inactive; negative
same,mutagenic call,"Test System: E. COLI, Strain/Indicator: WP2UVRA, Metabolic Activation: NONE, Method: GAS EXPOSURE",inactive; negative
same,mutagenic call,"Test System: E. COLI, Strain/Indicator: WP2UVRA, Metabolic Activation: RAT, LIVER, S-9, PHENOBARBITAL AND BETA--NAPHTHOFLAVONE, Method: GAS EXPOSURE",inactive; negative
Cn1sc(Cl)cc1=O (tested in a mixture with another compound),mutagenic call,[1],active; positive
same,mutagenic call,[2],active; positive
CC(NCc1ccccc1)C(=O)NCc1ccccc1 (configuration not stated),mutagenic call,[1],inactive; negative
COC(=O)c1ccc([N+](=O)[O-])c2c(NCCCN(C)C)c3ccccc3nc12,mutagenic call,[3],active; positive
same,mutagenic call,[1],active; positive
CCCCOC(=O)CC(CC(=O)OCCCC)(OC(C)=O)C(=O)OCCCC,mutagenic call,"Test System: AMES SALMONELLA TYPHIMURIUM, Strain/Indicator: TA98, Metabolic Activation: HAMSTER, LIVER, S-9, AROCLOR 1254, Method: STANDARD PLATE",inactive; negative
same,mutagenic call,[3],inactive; negative
same,mutagenic call,[4],inactive; negative
same,mutagenic call,"Test System: AMES SALMONELLA TYPHIMURIUM, Strain/Indicator: TA100, Metabolic Activation: HAMSTER, LIVER, S-9, AROCLOR 1254, Method: STANDARD PLATE",inactive; negative
same,mutagenic call,[1],inactive; negative
same,mutagenic call,[2],inactive; negative
same,mutagenic call,"Test System: AMES SALMONELLA TYPHIMURIUM, Strain/Indicator: TA1535, Metabolic Activation: HAMSTER, LIVER, S-9, AROCLOR 1254, Method: STANDARD PLATE",inactive; negative
same,mutagenic call,"Test System: AMES SALMONELLA TYPHIMURIUM, Strain/Indicator: TA1535, Metabolic Activation: NONE, Method: STANDARD PLATE",inactive; negative
same,mutagenic call,"Test System: AMES SALMONELLA TYPHIMURIUM, Strain/Indicator: TA1535, Metabolic Activation: RAT, LIVER, S-9, AROCLOR 1254, Method: STANDARD PLATE",inactive; negative
same,mutagenic call,"Test System: AMES SALMONELLA TYPHIMURIUM, Strain/Indicator: TA1537, Metabolic Activation: HAMSTER, LIVER, S-9, AROCLOR 1254, Method: STANDARD PLATE",inactive; negative
same,mutagenic call,"Test System: AMES SALMONELLA TYPHIMURIUM, Strain/Indicator: TA1537, Metabolic Activation: NONE, Method: STANDARD PLATE",inactive; negative
same,mutagenic call,"Test System: AMES SALMONELLA TYPHIMURIUM, Strain/Indicator: TA1537, Metabolic Activation: RAT, LIVER, S-9, AROCLOR 1254, Method: STANDARD PLATE",inactive; negative
same,mutagenic call,"Test System: AMES SALMONELLA TYPHIMURIUM, Strain/Indicator: TA1538, Metabolic Activation: HAMSTER, LIVER, S-9, AROCLOR 1254, Method: STANDARD PLATE",inactive; negative
same,mutagenic call,"Test System: AMES SALMONELLA TYPHIMURIUM, Strain/Indicator: TA1538, Metabolic Activation: NONE, Method: STANDARD PLATE",inactive; negative
same,mutagenic call,"Test System: AMES SALMONELLA TYPHIMURIUM, Strain/Indicator: TA1538, Metabolic Activation: RAT, LIVER, S-9, AROCLOR 1254, Method: STANDARD PLATE",inactive; negative
same,mutagenic call,"Test System: MOUSE LYMPHOMA, Strain/Indicator: L5178Y (TK+/TK-), Metabolic Activation: NONE, Method: SUSPENSION/PLATE",inactive; negative. reevaluation of results: inconclusive
same,mutagenic call,"Test System: MOUSE LYMPHOMA, Strain/Indicator: L5178Y (TK+/TK-), Metabolic Activation: RAT, LIVER, S-9, AROCLOR 1254, Method: SUSPENSION/PLATE",inactive; negative. reevaluation of results: negative
CC1NC(C(=O)O)Cc2c1[nH]c1ccccc21 (configuration not stated),mutagenic call,"Test System: AMES SALMONELLA TYPHIMURIUM, Strain/Indicator: TA97, Metabolic Activation: NONE, Method: STANDARD PLATE",inactive; negative
same,mutagenic call,"Test System: AMES SALMONELLA TYPHIMURIUM, Strain/Indicator: TA97, Metabolic Activation: RAT, LIVER, S-9, AROCLOR 1254, Method: STANDARD PLATE",inactive; negative
same,mutagenic call,[3],inactive; negative
same,mutagenic call,[4],inactive; negative
same,mutagenic call,[1],inactive; negative
same,mutagenic call,[2],inactive; negative
COc1cc([N+](=O)[O-])ccc1N,mutagenic call,[3],active; positive
same,mutagenic call,[4],active; positive
